Read-outs that look alike come from different tables or passages of the source. Ends that are not written are not given here.
How the values were obtained:
NS3 protease (MBP-NS34a) = target: T1, NS3 protease (MBP-NS34a) (Hepatitis C virus genotype 1b, UniProt P26662); assay: NS3 protease inhibitory activity test using substrate cleavage reaction as index; assay type: biochemical, human hepatitis C virus
T1 construct: (including 979th to 1710th amino acids); made in house; host or cells: Escherichia coli XL2-Blue
Protocol: An NS3 protease cleavage sequence between NS5a and NS5b in the HCV polypeptide was synthesized. The protease inhibitory ability of each of the synthetic peptides was examined according to the method of Kakiuchi et al., in which a synthetic substrate having an amino terminus labeled with a dansyl group was reacted in the presence of a protease and a cleavage degree is measured by reverse phase HPLC (Biochem. Diophys. Res. Commun., 210, 1059, 1995). 1 μg of the purified MBP-NS34a and a reaction mixture (50 mM Tris-HCl (pH 7.5), 30 mM NaCl, 5 MM MgCl2 and 10 mM DTT) containing an evaluation sample prepared at an appropriate concentration were incubated at 25° C. for 15 minutes. To the solution, the synthesized substrate was added at a final concentration of 50 μM, and the mixture was allowed to react at 37° C. for 1 to 3 hours. Subsequently, the enzymatic reaction was stopped by adding a reaction-stopping solution (20% acetonitrile, 0.1% TFA) in a volume 9 times as much as the reaction volume. Then, the cleavaged peak of the synthesized substrate was detected (excited at 340 nm and measured at 510 nm) by a reverse phase column (YMC-AM-302) to calculate the cleavage rate when the inhibitor was added. Further, a value obtained by dividing this cleavage rate when the inhibitor was added by the cleavage rate when no inhibitor was added, was subtracted from 1 and then multiplied by 100. The obtained value was used as the inhibition rate (%) of the evaluated drug. In the above method, the peptide concentration inhibiting 50% of the protease activity (IC50) was calculated (Table 2).

MBP-NS34a [1] = target: T2, MBP-NS34a (Hepatitis C virus genotype 1b, UniProt P26662); assay: Phage ELISA: inhibition of binding of phage peptide and MBP-NS34a by library compounds; design: species or system human hepatitis C virus; conditions: for effect on binding of various phages to NS34a (figure legend): FIG. 3: clones other than phage peptide K13, FIG. 4: any clone; for inhibition of the binding of the MBP-NS34a and the phage peptide: compound serially diluted, OD 405 nm (FIG. 3, FIG. 4)
T2 construct: (including 979th to 1710th amino acids); made in house; host or cells: Escherichia coli XL2-Blue
Protocol: A binding inhibitor was screened by using the above phage ELISA system. As peptides used for screening, the phage peptides whose protease inhibitory activity was confirmed by using the synthetic peptides were prepared in an amount required for screening according to the method of Example 2 <3>. Each well of a 96-well microtiter plate was coated by using 50 μl of the MBP-NS34a protein solution prepared at 10 μg/ml. The plate was blocked by using 100 μl of 0.5% BSA solution prepared with 10 mM NaHCO3 and rinsed once with 200 μl of TBS buffer for each well. A mixed solution of a compound in a chemical library (synthesized in our company) diluted to an appropriate concentration and each phage prepared as described above was prepared, and the mixture was added to each well coated with the MBP-NS34a protein in an amount of 100 μl and incubated overnight at 4° C. Each well was washed with 200 μl of TBS buffer four times. Then, 50 μl of horseradish peroxidase (HRP)-conjugated sheep anti-M13 phage diluted 2000 times with 5% skim milk was introduced into each well and incubated at room temperature for 1 hour.
Each well was washed with 200 μl of TBS containing 0.5% Tween-20, five times. Then, 100 μl of ABTS solution was added thereto and further incubated at room temperature. The optical density at 405 nm was measured by using a 96-well plate reader (BIO-RAD). There was selected Compound HCP1271 (Compound 5 described in Japanese Patent Laid-Open (KOKAI) No. 2000-7645), in the presence of which the optical density by binding of the MBP-NS34a and the phage peptide was lower than the optical density observed in the absence of the compound. Further, this inhibitory compound was serially diluted and its influence on the binding of 5 kinds of other phage peptides, which inhibited the NS3 protease activity, was similarly determined by the phage ELISA method. […] Further, since a compound HCP1231 similar to HCP1271, was retrieved by the search of the chemical library, its NS3 protease activity inhibitory ability and influence on the binding of the phage peptide and the NS3 protease were examined. […] That is, it was shown that the compound obtained from screening of the inhibitor for binding of the phage peptide and the protease protein could inhibit the protease activity very well.

MBP-NS34a [2] = target: T2, MBP-NS34a; assay: Phage ELISA: inhibition of binding of phage peptide and MBP-NS34a by NS4a peptide 4A18-40; design: species or system human hepatitis C virus; conditions: 4A18-40 peptide in 10-fold and 20-fold molar excess (FIG. 2)
Excerpt: A possibility that an action site of each phage peptide clone obtained as described above and that of the NS4a peptide derived from virus known to be activated by the binding to the NS3 protein were identical or overlapped was examined. A partial peptide of the NS4a peptide composed of the 18th to 40th residues from the amino terminus (referred to as 4A18-40 peptide) is known as a minimal region required to enhance the NS3 protease activity (Tanji et al., J. Virol., 69, 4017-4026, 1995). Accordingly, an influence on the binding of each phage peptide and the MBP-NS34a protein was analyzed by the phage ELISA method using a chemically synthesized 4A18-40 peptide ([…], SEQ ID NO; 19). 10 μg/ml of the MBP-NS34a protein to which the 4A18-40 peptide was added in an amount of 10 or 20 times in excess in a molar ratio was immobilized on each well of a 96-well microtiter plate. The plate was blocked by using 100 μl of 0.5% BSA solution prepared with 10 mM NaHCO3, and rinsed once with 200 μl of TBS buffer. […]
Each well was washed with 200 μl of TBS containing 0.5% Tween 20 five times. […] The optical density at 405 nm was measured by a 96-well plate reader (BIO-RAD). The optical density due to binding of the MBP-NS34a and the phage peptide observed in the presence of the NS4a peptide was measured.

T1 sequence (P26662 979-1710): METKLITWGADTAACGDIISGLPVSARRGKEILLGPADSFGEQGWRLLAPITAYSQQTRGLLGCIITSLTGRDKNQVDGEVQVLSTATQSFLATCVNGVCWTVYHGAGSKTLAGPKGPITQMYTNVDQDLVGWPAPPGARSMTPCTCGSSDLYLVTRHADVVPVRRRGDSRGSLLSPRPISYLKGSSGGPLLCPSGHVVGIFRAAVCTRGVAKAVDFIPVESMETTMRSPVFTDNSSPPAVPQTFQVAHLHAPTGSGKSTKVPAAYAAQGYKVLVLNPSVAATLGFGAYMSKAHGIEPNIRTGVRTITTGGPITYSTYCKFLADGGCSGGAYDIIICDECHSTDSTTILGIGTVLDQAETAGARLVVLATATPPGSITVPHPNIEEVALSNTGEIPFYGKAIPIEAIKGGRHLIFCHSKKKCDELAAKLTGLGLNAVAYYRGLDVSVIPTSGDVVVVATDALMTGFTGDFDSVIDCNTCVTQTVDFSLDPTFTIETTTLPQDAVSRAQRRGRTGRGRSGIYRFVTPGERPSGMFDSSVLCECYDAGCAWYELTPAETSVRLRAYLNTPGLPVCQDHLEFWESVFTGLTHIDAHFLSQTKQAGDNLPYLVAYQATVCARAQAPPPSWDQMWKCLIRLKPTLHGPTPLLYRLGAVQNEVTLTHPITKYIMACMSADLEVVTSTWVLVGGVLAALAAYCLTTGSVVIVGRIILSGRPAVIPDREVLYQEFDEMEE
T2 sequence (P26662 979-1710): as above

| Compound | effect on binding of various phages to NS34a (figure legend) (MBP-NS34a [1]) | inhibition of the binding of the MBP-NS34a and the phage peptide (MBP-NS34a [1]) | IC50 (NS3 protease (MBP-NS34a)) [µM] | other results |
| --- | --- | --- | --- | --- |
| O=C(Nc1ccc(Oc2c(Cl)cc(Cl)cc2Cl)cc1)c1cc(Cl)ccc1NS(=O)(=O)c1ccc2ccccc2c1 [HCP1271] | inhibited in a concentration-dependent manner | concentration-dependently inhibited the binding | – | IC50 (NS3 protease (MBP-NS34a); method of Example 3 <1>, read-out: NS3 protease activity IC50 value): 2.2 µM |
| WVFFWLSRP [Clone J95, WVFFWLSRP] | – | – | 15 | – |
| LTTGSVVIVGRIILSGRPAVVPD [4A18-40 peptide] | – | – | – | inhibition of binding of phage clone K13 to the MBP-NS34a protein (MBP-NS34a [2]): increasingly inhibited; inhibition of binding of phage clone K13 to the MBP-NS34a protein (MBP-NS34a [2]; listed as NS4a peptide): inhibited the binding in a concentration-dependent manner |
| IWHFSFMWI [Clone K1, IWHFSFMWI] | – | – | 15 | – |
| CCCCCCNC(=O)c1cc(Cl)ccc1NS(=O)(=O)c1ccc(Cl)cc1 [HCP1231] | Binding of any clone was not inhibited | scarcely inhibited the binding | – | NS3 protease activity inhibitory ability (in words) (NS3 protease (MBP-NS34a)): very weak protease activity inhibitory activity |
